Data as given in PubChem BioAssay (NCI).
≈ marks a conversion by molar mass, not a printed value.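 Results reflect a 48-hour exposure of cells in 96-well plates to compound at five concentrations. GI50 is the concentration that inhibits growth by half. TGI is the concentration that stops growth completely.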 Calls of active or inactive are those of the source. Rule as the data show it: active = GI50 below about 0.43 µM; inactive = the rest.

Experiments:
Experiment in all cases: NCI tumour cell line growth inhibition, 48 h
KM20L2 colon = tested on: KM20L2 colon
DMS 273 small cell lung = tested on: DMS 273 small cell lung
M19-MEL melanoma = tested on: M19-MEL melanoma
DLD-1 colon = tested on: DLD-1 colon
HOP-18 NSCLC = tested on: HOP-18 NSCLC
XF 498 CNS = tested on: XF 498 CNS
SNB-78 CNS = tested on: SNB-78 CNS
LXFL 529 NSCLC = tested on: LXFL 529 NSCLC
P388 leukemia = tested on: P388 leukemia
SN12K1 renal = tested on: SN12K1 renal
RXF-631 renal = tested on: RXF-631 renal
P388/ADR leukemia = tested on: P388/ADR leukemia

Compound | TGI (KM20L2 colon) [µM] | TGI (DMS 273 small cell lung) [µM] | TGI (M19-MEL melanoma) | TGI (DLD-1 colon) | TGI (HOP-18 NSCLC) [µM] | TGI (XF 498 CNS) [µM] | TGI (SNB-78 CNS) [µM] | TGI (LXFL 529 NSCLC) [µM] | TGI (P388 leukemia) | TGI (SN12K1 renal) | TGI (RXF-631 renal) [µM] | outcome (KM20L2 colon) | GI50 (M19-MEL melanoma) [µg/mL] | GI50 (DLD-1 colon) [µg/mL] | GI50 (SN12K1 renal) [µg/mL] | GI50 (P388/ADR leukemia) [µg/mL] | TGI (P388/ADR leukemia)
COc1ccc(N2C(=O)[C@@H]3[C@@H]4CC(C)CC[C@@H]4c4c([nH]c5ccccc45)[C@@H]3C2=O)cc1 (some centres undefined) | > 100 | 44.3 | > 100 µM | > 58.4 µM | 14 | 26 | 27.2 | > 88 |  |  |  |  |  |  |  |  | 
Cc1[nH]c2c(C)c3c([nH]c4ccc(Cl)cc43)c(C)c2c(=O)c1C |  | 96.1 | 54.9 µM | 73.3 µM | > 100 | > 100 | > 100 |  |  |  |  |  |  |  |  |  | 
O=C1OCc2nc3c(c(-c4ccccc4C(F)(F)F)c21)C(=O)OC3 | > 100 | > 100 | > 100 µM | > 100 µM | > 100 |  | > 100 | > 100 |  |  |  |  |  |  |  |  | 
O=C1C=C2SC3C[C@@]24CC1(O)[N+]1=c2c4c(c(O)c4c2=C(C=N4)CC1)N3 | 1.08 | 2.97 | 0.773 µM | 2.65 µM | 3.9 | 3.28 | 4.21 |  | 4.78 µM | 2.73 µM |  |  |  |  |  |  | 
COC1=CC(=O)[C@@]2(C)C(C)[C@H](c3ccccc3)[C@H]2C1=O (some centres undefined) | > 100 | > 100 | > 100 µM | > 100 µM |  | > 100 |  | > 100 |  |  | > 100 |  |  |  |  |  | 
Cc1c2ccncc2c(C)c2c1[nH]c1ccc(O)cc12 |  |  | 0.388 µg/mL | 0.883 µg/mL |  |  |  |  | 0.232 µg/mL | 0.182 µg/mL |  | inactive | 0.0231 (≈ 0.0881 µM) | 0.023 (≈ 0.0875 µM) | 0.0168 (≈ 0.0639 µM) | 0.014 (≈ 0.0532 µM) | 1.75 µg/mL
O=C(CC(C(=O)c1ccsc1)c1cccs1)c1cccs1 (centres undefined) | > 100 | > 100 | > 100 µM | > 100 µM |  | > 100 | > 100 | > 100 |  |  |  |  |  |  |  |  | 
COC(OC)c1cccc2c1C(=O)CCC1(CC2)OCCCCO1 | > 100 | > 100 | > 100 µM | > 100 µM | > 100 |  | > 100 | > 100 |  |  |  |  |  |  |  |  | 
Cc1c(CCCl)c(Cl)n2c(nc3ccccc32)c1C#N | 2.11 | 3.15 | 9.76 µM | 2.44 µM | 3.95 |  | > 100 | 1.63 |  |  | 2.18 |  |  |  |  |  | 
CNC(=O)OC1/C(C)=C\C(C)C(O)C(OC)CC(C)CC2=C(OC)C(=O)C=C(C2=O)N(C)C(=O)/C(C)=C/C=C\C1OC (centres undefined) | 15.5 | 14.8 | 14.7 µM | 16.4 µM | 22.7 | 10 | 30.3 | 19.6 |  |  | 41.2 |  |  |  |  |  | 
CCN(CC)C(=O)Cc1[nH][nH]c(=O)c1C(=O)N(CC)CC | > 100 | > 100 | > 100 µM | > 100 µM | > 100 | > 100 | > 100 | > 100 |  |  |  |  |  |  |  |  | 
CN1C/C(=C\c2ccccc2)C2=NN(C(N)=S)[C@H](c3ccccc3)[C@@H]2C1 | > 100 | > 100 | > 100 µM | > 100 µM |  | > 100 | > 100 | > 100 |  |  |  |  |  |  |  |  | 
O=S(c1ccc(O)cc1)c1ccc(O)cc1 | > 100 | > 100 | > 100 µM | > 100 µM |  | > 100 |  |  |  |  | > 100 |  |  |  |  |  | 
CC(=O)OC1COC(N2C(=O)C(=O)c3ccccc32)C(OC(C)=O)C1OC(C)=O (centres undefined) | > 100 | > 100 | > 100 µM | > 100 µM |  |  | > 100 | > 100 |  |  | > 100 |  |  |  |  |  | 
O=C1N[C@@H]([C@H]2CC[C@H](Cl)CN2)C(=O)N[C@H]1[C@H]1CC[C@H](Cl)CN1 | 63.9 | 7.35 | 23.5 µM | 286 µM | 139 | 0.819 | 87.8 |  | 20.3 µM | 13.5 µM |  |  |  |  |  |  | 23.1 µM
CCCC(O)c1ccc2[nH]c3c(C)cc([N+](=O)[O-])c(C)c3c2c1 (centres undefined) |  | > 100 | > 100 µM | > 100 µM | > 100 | > 100 | > 100 |  |  |  |  |  |  |  |  |  | 
Cc1cc2c3ccccc3n3c2c2c1OC1(C)CCC(C2C1)C3(C)C (centres undefined) | > 25 | > 25 | > 25 µM | > 25 µM |  | > 25 | > 25 | > 25 |  |  |  |  |  |  |  |  | 
